Measured values taken from US7973213B2, “Antibiotic resistance conferred by a plant ABC transporter gene when expressed in transgenic plants” (University of Tennessee Research Foundation, priority 2005, dated 2011).

How the values were obtained:
[1] = test system: transgenic tobacco events 28 and 30; assay: Resistance of Atwbc19 transgenic tobacco events to other antibiotics; format: in vivo, Nicotiana tabacum; conditions: Atwbc19-only transgenic events 28 and 30
[2] = test system: Nicotiana tabacum cv Xanthi; assay: Root growth of T1 transgenic tobacco (pS15-ABC-dKan) on media with kanamycin; format: in vivo; conditions: 200 mg/l kanamycin, 3 weeks
Protocol: Segregation analysis was performed on MS media (Murashige et al., 1962) with B5 vitamins (Gamborg et al., 1968) and 3% sucrose (MSO media) containing 200 mg/l kanamycin. T1 seeds from plants transformed with pS15-ABC-dKan were surface sterilized and germinated on the media. Root growth analysis was performed as above on vertically positioned plates where 6 seeds per plate and 6 replicate plates for each event were germinated with and without 100 and 200 mg/l kanamycin. Root length was measured after 3 weeks. All experiments were performed in a 25° C. growth cabinet under constant 40 μE irradiance.

[3] = test system: Arabidopsis thaliana insertional knockout mutants; assay: Root growth of Arabidopsis insertional mutants on MSO media with kanamycin; format: in vivo; conditions: media with 100 mg/l kanamycin, 2 weeks
Protocol: Sequence-tagged insertional mutant lines for the three ABC transporters, Atwbc19 (SALK—107731), Atwbc18 (SALK—100187) and Atwbc16 (SALK—119868) were obtained from ABRC Arabidopsis knock-out library. Homozygosity was tested by PCR of genomic DNA using 3 primers (Table 1). Two of the primers are specific to the native gene and amplify a known fragment. The third primer is specific to the T-DNA. Where the T-DNA is inserted between the two gene specific primers, a smaller fragment is generated allowing the identification of insertion in the gene of interest. The fragment was sequenced to ensure that it mapped at the expected loci. Kanamycin resistance was assessed by growing the mutants on MSO media with and without 100 mg/l kanamycin. Stratified seeds were germinated on 4 Petri dishes with 6 plants for each line and placed vertically in a growth chamber at 25 degrees. Root length was measured after 2 weeks. To quantify NPTII protein levels, total protein was extracted from 100 mg of root and shoot tissue from seedlings germinated on MSO media for 2 weeks, with 2 replicate samples per line. An ELISA was performed using a kit according to the manufactures instructions (Agdia, Elkhart, Ind., USA).

Escherichia coli DH5α = assay: Kanamycin resistance of transformed E. coli in 96-well microtiter plates (optical density 630 nm); format: cell-based; conditions: E. coli transformed with pKS-ABC, IPTG 1 mM, 24 hr
Protocol: Escherichia coli DH5α was obtained from stock strains available within our lab. All strains were cultured on LB media. Three plasmids were used in this study. pKS-ABC contains the Atwbc19 gene under the control of the lacZ promoter in pBluescript II SK+; pKS-nptII contains the nptII gene with the lacZ promoter in pBluescript II SK+; and pKS is pBluescript II SK+ with no inserted genes as a control. The microorganisms were maintained in glycerol stocks and stored at −80° C. Working cultures were obtained by inoculating a loopful of culture into 50 ml LB broth supplemented with ampicillin (100 mg/l) and incubated at 37° C. for 24 hr.
E. coli DH5α were transformed with pKS, pKS-ABC, and pKS-nptII by freeze/thaw method (Hanahan 1983). The gram-negative […] Escherichia coli DH5α were used in all transformations. For selection of transformants, aliquots of bacteria were spread onto solidified LB medium supplemented with ampicillin (100 mg/l) and incubated at 37° C.
Isopropyl-b-D-thiogalctopyranoside (IPTG) at 1 mM was used to induce Atwbc19 expression. Each well was filled with 199 μl LB, IPTG and varying concentrations of kanamycin or gentamycin and 50 μl bacterial treatment (DH5α transformed with pKS-ABC, DH5α transformed with pKS-nptII, DH5α transformed with pKS or none). […] Optical densities were measured at 630 nm (Biorad) after incubating microtiter plates at 37° C. for 24 hr.

Question: For NCC[C@H](O)C(=O)N[C@@H]1C[C@H](N)[C@@H](O[C@H]2O[C@H](CN)[C@@H](O)[C@H](O)[C@H]2O)[C@H](O)[C@H]1O[C@H]1O[C@H](CO)[C@@H](O)[C@H](N)[C@H]1O [amikacin], which “resistance of plants to the antibiotic” value [1] is on record?
Answer: no resistance

Question: How did the “resistance of plants to the antibiotic” value [1] turn out when O=C(N[C@H](CO)[C@H](O)c1ccc([N+](=O)[O-])cc1)C(Cl)Cl [chloramphenicol] was run?
Answer: no resistance

Question: With NC[C@H]1O[C@H](O[C@H]2[C@H](O)[C@@H](O[C@H]3O[C@H](CO)[C@@H](O)[C@H](N)[C@H]3O)[C@H](N)C[C@@H]2N)[C@H](O)[C@@H](O)[C@@H]1O [kanamycin] as the molecule, how does the Root length ([2]; Atwbc19 transgenic event #28, T1 seeds) read?
Answer: 1.03±0.55 cm

Question: What about the Root length ([2]; Atwbc19 transgenic event #30, T1 seeds) of the same molecule?
Answer: 2.02±1.16 cm

Question: What about the Root length ([2]; control (non-transgenic) tobacco) of the same molecule?
Answer: 0.37±0.09 cm

Question: What about the “root growth (root length)” value ([3]; line SALK—100187 (Atwbc18 mutant)) of the same molecule?
Answer: 1.82±0.25 cm

Question: And the “root growth (root length)” value ([3]; line SALK—107731 (Atwbc19 mutant))?
Answer: 0.31±0.04 cm

Question: And the “root growth (root length)” value ([3]; line SALK—119868 (Atwbc16 mutant))?
Answer: 0.30±0.03 cm

Question: What about the “kanamycin concentrations to which Atwbc19 confers resistance” value (Escherichia coli DH5α) of the same molecule?
Answer: below 12.5 mg/l

Question: With [H]/N=C(/N)N[C@H]1[C@H](O)[C@@H](O)[C@H](O[C@@H]2O[C@@H](C)[C@](O)(C=O)[C@H]2O[C@@H]2O[C@@H](CO)[C@H](O)[C@@H](O)[C@@H]2NC)[C@@H](N/C(N)=N\[H])[C@@H]1O [streptomycin] as the molecule, how does the “resistance of plants to the antibiotic” value [1] read?
Answer: no resistance

Question: gentamycin was tested. Which “resistance of plants to the antibiotic” value [1] did it give?
Answer: no resistance
